Measured values: patent US12076409B2, “Polymer-drug conjugates for combination anticancer therapy” (priority 2015, dated 2024)
pIC50: −log10 of the molar value.

Experiments:
[1] = tested on: BT-474 cells; assay: Internalization studies by confocal laser scanning microscopy; assay type: cell-based, human; conditions: BT-474, 24 hrs
Procedure: To assess the effect of HA-conjugation on the internalization of CPT or DOX in BT-474 cells, confocal laser scanning microscopy was utilized. Cells were seeded at a density of 80,000 cells per 300 μL media in an 8-well chambered borosilicate coverglass (Nunc Lab-Tek), and were allowed to adhere overnight. Cells were exposed to the same drug concentration, the free drug D50, of either the free drug solution or the HA-conjugate form for 24 hrs at 37° C. and 5% CO2. Post-drug incubation, cells were washed twice with warmed PBS (pH 7.4), followed by staining with nuclear dyes at 37° C., 5% CO2. In the case of DOX-exposed cells, Hoechst nuclear dye was utilized at a concentration of 25 μg/mL for 30 minutes. For CPT-exposed cells, to avoid overlap fluorescence between CPT and nuclear marker, DRAQ5 was used to stain nuclei at a concentration of 5 μM in media for 60 minutes. Cells were washed twice more in warm PBS and finally suspended in media immediately prior to imaging. All cells were imaged live with an Olympus Fluoview 1000 spectral confocal equipped with a 60× silicon oil objective and a 37° C. temperature-controlled imaging chamber. […] Z-stacks of 10 μm were captured and subsequently analyzed with ImageJ 1.47h software (NIH). Each z-stack was collapsed into an averaged image, and fluorescence intensity was reported as the raw integrated density divided by number of cells. […]

[2] = tested on: small cell lung cancer; conditions: patients with small cell lung cancer; cited from earlier work
[3] = tested on: human breast cancer cell line BT-474; assay: MTT cell viability and drug combination studies in BT-474 cells; assay type: cell-based; conditions: BT-474, 72 hours, read-out: D50 (concentration of drug required to inhibit 50% cell growth)
Procedure: BT-474 or bEnd.3 cells were seeded in a 96-well cell culture plate at a density of 10,000 cells per well in a total volume of 100 μL/well and allowed to adhere overnight. Media was then replaced with fresh media containing drug(s). Drugs were first dissolved in DMSO, and then further diluted in full cell culture medium so as not to expose cells to more than 0.5 vol % DMSO. BT-474 cells were incubated with drug solutions for 72 hours, while bEnd.3 cells were exposed to drug solutions for 48 hours. […] To assess cell viability, the media was replaced with 0.5 mg/mL MTT in media and allowed to incubate for 4 hours. […] Formazan dye intensity was determined by absorbance measured at 570 nm in a Tecan Infinite M200 Pro plate reader (Männedorf, Switzerland). The fraction of inhibited cell growth was calculated by subtracting live cells in experimental wells from untreated control cells and normalizing against control cells. D50 refers to the concentration of drug required to inhibit 50% cell growth. Experimental cytotoxicity data were fitted to the median-effect model developed by Chou and Talalay to obtain in vitro cytotoxicity curves for each drug.

[4] = tested on: BT-474 cells; assay: Annexin V/Sytox Green apoptosis assay (flow cytometry); assay type: cell-based, human; conditions: BT-474, 72 hours, single drug
Procedure: Apoptosis assessment was made based on Annexin V and Sytox Green counterstaining. Studies followed the Life Technologies Apoptosis Assay protocol, with few modifications tailored to BT-474 cells. Briefly, cells were seeded at a concentration of 100×10^4 cells per 25 cm^2 cell culture flask in a total volume of 10 mL media, and allowed to adhere overnight. Media was then decanted and replaced with fresh media containing drug(s). Drugs were first dissolved in DMSO and further diluted in media such that cells were not exposed to more than 0.2 vol % DMSO. Cells were incubated in the presence of drug(s) for 72 hours. After drug exposure, cells were harvested at a concentration of 1×10^6 cells/mL in Annexin V binding buffer, and 200 μL of each sample were incubated with 5 μL of Annexin V-647 and 1 μL of 1 μM Sytox Green. After 15 minutes of dye incubation, cells were diluted 5× in ice cold Annexin V Binding Buffer, and immediately analyzed via flow cytometry in a Becton Dickinson FACSAria cell sorter (Franklin Lakes, NJ, USA). To quantify Annexin V-647 and Sytox Green fluorescence, a 633 nm laser with 660 PMT and a 488 nm laser with 530 PMT, respectively, were utilized. […]
Scatter plots obtained from flow cytometry of AnnexinV/Sytox Green counterstained cells were analyzed. These plots were utilized to quantify early apoptotic and late apoptotic/necrotic populations in FIG. 2. […]

SMILES | intracellular distribution [1] | overall response rate [2] | pIC50 [3] | percentage of apoptotic cells [4]
COc1cccc2c1C(=O)c1c(O)c3c(c(O)c1C2=O)C[C@@](O)(C(=O)CO)C[C@@H]3O[C@H]1C[C@H](N)[C@H](O)[C@H](C)O1 [DOX, Doxorubicin] | more diffuse and co-localized with cell nuclei | > 20% | – | –
CC[C@@]1(O)C(=O)OCc2c1cc1n(c2=O)Cc2cc3ccccc3nc2-1 [CPT, Camptothecin] | – | – | 4.00 | low percentages of apoptotic cells
